Values of other authors, collected in PMC11187573, “Identification of SARS-CoV-2 Mpro inhibitors through deep reinforcement learning for de novo drug design and computational chemistry approaches” (RSC Medicinal Chemistry, 2024).
pIC50: −log10 of the molar value.

Tested on: Mpro
Conditions: ML dataset, Origin COVID_Moonshot; ref COVID Moonshot; cited from earlier work

Point of comparison: Cc1ccncc1NC(=O)Nc1cccc(Cl)c1, pIC50 4.26. Against it:
- CS(=O)(=O)c1ccc(N2CCNCC2)cc1 — 0.22 log units lower, 4.04
- O=C(Cc1cccc(Cl)c1)Nc1cnccc1-c1ccccc1 — 0.22 log units higher, 4.48
- Cc1ccncc1NC(=O)Cc1cccc(F)c1 — 0.24 log units lower, 4.02
- Nc1cncc2c1CCCN2C(=O)Cc1cccc(Cl)c1 — within 0.2 log units, 4.36
- Cc1ccncc1NC(=O)CN1C(=O)COc2ccc(Cl)cc21 — within 0.2 log units, 4.31
- O=C(c1cc(=O)[nH]c2ccccc12)N1CCN(c2ccccc2F)CC1 — 0.36 log units higher, 4.62
- O=C(Nc1cncc2c1CNCC2)C1CCOc2ccc(Cl)cc21 (stereo not shown) — 0.95 log units higher, 5.21
- Cc1ccncc1NC(=O)C1CCOc2ccc(Cl)cc21 (stereo not shown) — 0.54 log units higher, 4.80
- CCCCOc1ccc(Cl)cc1CC(=O)Nc1cnccc1C — 0.43 log units higher, 4.69
- Cn1c(=O)[nH]c2cncc(NC(=O)C3CCOc4ccc(Cl)cc43)c21 (stereo not shown) — 0.42 log units higher, 4.68
- Cc1ccncc1NC(=O)CN1CCC(C)CC1 — within 0.2 log units, 4.31
- Cc1ccncc1CC(=O)Nc1cccc(Cl)c1 — 0.29 log units higher, 4.55
- COc1ccccc1OCCNC(=O)c1cc(=O)[nH]c2cccc(C)c12 — 0.92 log units higher, 5.18
- O=C(c1cc(=O)[nH]c2ccccc12)N1CCN(c2cccc(Cl)c2)C(=O)C1 — 0.64 log units higher, 4.90
- Cc1ccncc1N1CCN(c2cccc(Cl)c2)C1=O — 0.22 log units lower, 4.04
- O=C(Cc1cccc(Cl)c1)Nn1cnc2ccccc21 — 0.94 log units higher, 5.20
- Cc1ccncc1NC(=O)Cc1cccc(Br)c1 — 0.48 log units higher, 4.74
- CCCC(C(=O)Nc1cnccc1C)c1cccc(Cl)c1 (stereo not shown) — 0.68 log units higher, 4.94
- O=C(Nc1cccnc1)N(CCC1CCCCC1)c1cccc(Cl)c1 — 1.24 log units higher, 5.50
- Cc1ccncc1NC(=O)Cc1cc(Cl)cc(NC2CCCC2O)c1 (stereo not shown) — 0.27 log units higher, 4.53
- Cc1ccncc1NC(=O)Cc1cc(Cl)cc(NC2CC2C(F)(F)F)c1 (stereo not shown) — 0.39 log units higher, 4.65
- O=C(Cc1cccc(Cl)c1)Nc1cncc2c1CCC2 — 1.05 log units higher, 5.31
- Cc1ccncc1NC(=O)CC(C)C(C)C (stereo not shown) — 0.26 log units lower, 4.00
- COc1ccccc1OCCNC(=O)c1cc(=O)[nH]c2ccccc12 — 1.01 log units higher, 5.27
- O=C(Cc1cc(Cl)cc2c1OCC2)Nc1cncc2ccccc12 — 1.75 log units higher, 6.01
- O=C(Cc1cccc(Cl)c1)Nn1nnc2ccccc21 — 0.47 log units higher, 4.73
- COc1cc(Cl)cc(CC(=O)Nc2cnccc2C)c1 — within 0.2 log units, 4.40
- Cc1ccncc1NC(=O)Cc1cc(Cl)cc(-c2ccc(C)c(F)c2F)c1 — within 0.2 log units, 4.36
- O=C(Cc1cccc(Cl)c1)Nc1cncc2nc[nH]c12 — 0.71 log units higher, 4.97
- O=C(Cc1cccc(Cl)c1)Nc1cnc2ccccn12 — 0.84 log units higher, 5.10
- Cn1cncc1NC(=O)Cc1cccc(Cl)c1 — 0.24 log units lower, 4.02
- O=C(Cc1cncnc1)Nc1cc(F)cc(OC2CC(=O)N2)c1 (stereo not shown) — 0.34 log units higher, 4.60
- O=C(Cc1cccnc1)Nc1cccc(OC2CC(=O)N2)c1 (stereo not shown) — 0.21 log units lower, 4.05
- Cc1cc(NC(=O)Cc2cncnc2)cc(OC2CC(=O)N2)c1 (stereo not shown) — 0.20 log units higher, 4.46
- CC(=O)NCc1cc(Cl)cc(CC(=O)Nc2cnccc2C)c1 — within 0.2 log units, 4.31
- Cc1ccncc1NC(=O)Cc1cc(Cl)cc(OC2CC(=O)N2)c1 (stereo not shown) — 1.38 log units higher, 5.64
- Cc1ccncc1NC(=O)C(C)c1cc(Cl)cc(OC2CC(=O)N2)c1 (stereo not shown) — within 0.2 log units, 4.08
- Cc1ccncc1NC(=O)C(C)c1cccc(Cl)c1 (stereo not shown) — 0.45 log units higher, 4.71
- Cc1c(N)cncc1NC(=O)Cc1cccc(C#N)c1 — 0.36 log units higher, 4.62
- Cc1ccncc1NC(=O)Cc1cccc(C#N)c1 — within 0.2 log units, 4.28
- Cc1ccncc1NC(=O)C(C)c1cccc(C#N)c1 (stereo not shown) — within 0.2 log units, 4.30
- Cc1c(N)cncc1NC(=O)Cc1cccc(Cl)c1 — 0.95 log units higher, 5.21
- Cc1ccncc1NC(=O)Cc1cccc(Cl)c1 — 0.46 log units higher, 4.72
- O=C(Nc1cncc2ccccc12)C1COc2ccc(Cl)cc21 (racemic) — 1.47 log units higher, 5.73
- CN(C(=O)Cn1nnc2ccccc21)c1ccc(Oc2ccc(C(F)(F)F)cn2)cc1 [AAR-POS-8a4e0f60-7] — within 0.2 log units, 4.42
- COc1cc(Cl)cc(OC(=O)Nc2cccnc2)c1 [AGN-NEW-891393a6-1] — 1.13 log units higher, 5.39
- CC(C)(C)c1ccc(N(C(=O)c2ccco2)C(C(=O)N2CCOCC2)c2cccnc2)cc1 (stereo not shown) [ALP-POS-0c0a3b93-1] — within 0.2 log units, 4.39
- CC(C)(C)c1ccc(N(C(=O)C2CCCO2)C(C(=O)NCCc2cccc(F)c2)c2cccnc2)cc1 (stereo not shown) [ALP-POS-02c6a514-17] — 0.99 log units higher, 5.25
